Values quoted from earlier work, collected in paper PMC11859340, “The Therapeutic Potential of Spirooxindoles in Cancer: A Focus on p53–MDM2 Modulation” (Pharmaceuticals, 2025).
Like-named read-outs stand apart in the source and are kept apart here. Each block holds one compound with its values, some of them ahead of it.

Columns and labels:
HeLa (cervical) [1] = system: HeLa (cervical); design: method as in PMID 37935912; settings: SRB; read-out: IC50 against HeLa
MDA-MB-231 “mutant p53” = system: MDA-MB-231 “mutant p53”; design: method as in PMID 37731691; settings: MTT; read-out: IC50 against MDA-MB-231
MCF7 “wild p53” = system: MCF7 “wild p53”; design: method as in PMID 37731691; settings: MTT; read-out: IC50 against MCF7
HeLa (cervical) [2] = system: HeLa (cervical); design: method as in doi:10.31788/RJC.2023.1638506; settings: MTT; read-out: IC50 against HeLa
PC3 (prostate) [3] = system: PC3 (prostate); design: method as in PMID 34684885; settings: MTT; read-out: IC50 against PC3
A549 (lung) [4] = system: A549 (lung); design: method as in PMID 36174446; settings: MTT; read-out: IC50 against A549
MCF7 (breast) [5] = system: MCF7 (breast); design: method as in doi:10.31788/RJC.2023.1638506; settings: MTT; read-out: IC50 against MCF7
HCT-116 (colon) = system: HCT-116 (colon); design: method as in PMID 36174446; settings: MTT; read-out: IC50 against HCT-116
PC3 (prostate) [6] = system: PC3 (prostate); design: method as in PMID 36174446; settings: MTT; read-out: IC50 against PC3
MDA-MB-231 (breast) = system: MDA-MB-231 (breast); design: method as in PMID 36174446; settings: MTT; read-out: IC50 against MDA-MB-231
[7] = system: MCF7 (breast) cancer cell line; design: method as in doi:10.1016/j.molstruc.2023.137026; settings: MCF7, at 25 μg/mL
MCF7 (breast) [8] = system: MCF7 (breast); design: method as in PMID 28797774; settings: CCK-8; read-out: IC50 against MCF7
HCT116 (colon) = system: HCT116 (colon); design: method as in PMID 28797774; settings: CCK-8; read-out: IC50 against HCT116
A549 (lung) [9] = system: A549 (lung); design: method as in PMID 28797774; settings: CCK-8; read-out: IC50 against A549
[10] = system: osteosarcoma, acute leukemia, prostate, colon, and dedifferentiated liposarcoma cancers; settings: mouse xenograft models
MDM2 = biological target: MDM2; design: method as in PMID 36174446; settings: read-out: KD against MDM2
MDA-MB231 (breast) = system: MDA-MB231 (breast); design: method as in PMID 34970530; settings: MTT; read-out: IC50 against MDA-MB231
Caco-2 (colon) = system: Caco-2 (colon); design: method as in PMID 34970530; settings: MTT; read-out: IC50 against Caco-2
MCF7 (breast) [11] = system: MCF7 (breast); design: method as in PMID 26256638; settings: MTT; read-out: IC50 against MCF7
HepG-2 (liver) = system: HepG-2 (liver); design: method as in PMID 34970530; settings: MTT; read-out: IC50 against HepG-2

Compound: O=C1c2ccccc2OC12C(c1ccc(Cl)cc1)C1CCCCN1C21C(=O)Nc2ccccc21 (stereo not drawn) [77 (R = H)]
- IC50 (HeLa (cervical) [1]): 2500 ± 300 nM

Compound: O=C1N(CCn2cc(CO)nn2)c2cc(Br)ccc2[C@]12[C@@H](c1ccccc1)C(c1ccccc1)=NN2c1ccccc1 [101 (X = (CH2)2)]
- IC50 (MDA-MB-231 “mutant p53”): 9.3 µM
- IC50 (MCF7 “wild p53”): 11.9 µM

- IC50 (HeLa (cervical) [2]): 65.3 µM
- IC50 (PC3 (prostate) [3]): 1900 ± 400 nM
- IC50 (A549 (lung) [4]): 11.5 ± 0.8 µM
- IC50 (MCF7 (breast) [5]): 59.4 µM
- IC50 (HCT-116 (colon)): 13.1 ± 2.1 µM
- IC50 (PC3 (prostate) [6]): 8.8 ± 0.3 µM
- IC50 (MDA-MB-231 (breast)): 5.82 ± 0.4 µM
Compound: COc1cccc2c1C(=O)c1c(O)c3c(c(O)c1C2=O)C[C@@](O)(C(=O)CO)C[C@@H]3O[C@H]1C[C@H](N)[C@H](O)[C@H](C)O1 [doxorubicin, reference compound]

Compound: CCCN1C(=O)[C@]2(N[C@@H](c3ccc(F)cc3)[C@@]3(Sc4c(C(=O)C(=O)OC)c5ccccc5n4C3=O)[C@H]2C(=O)OC)c2ccc(Cl)cc21
- cell viability [7]: about 80%

- IC50 (MCF7 (breast) [8]): 2400 ± 100 nM
- IC50 (HCT116 (colon)): 1800 ± 500 nM
- IC50 (A549 (lung) [9]): 2900 ± 200 nM
Compound: CCN(CC)c1ccc(N2C[C@H]3[C@@H](CS[C@]4(C(=O)Nc5cccc(Br)c54)[C@@H]3c3ccc(Br)cc3)CC2=O)cc1 [143 (R = 4-(4-diethylamino)C6H4)]

Compound: CC(C)(C)C[C@@H]1N[C@@H](C(=O)N[C@H]2CC[C@H](O)CC2)[C@H](c2cccc(Cl)c2F)[C@]12C(=O)Nc1cc(Cl)ccc12 [SAR405838]
- cancer inhibition [10]: recognizable or complete cancer inhibition

Compound: O=C(c1nc2ccccc2[nH]1)[C@H]1[C@H](c2ccccc2)C2CC3CCCCC3N2[C@]12C(=O)Nc1ccc(Cl)cc12 (stereo partly drawn) [compound 38]
- IC50 (A549 (lung) [4]): 7.8 ± 0.3 µM
- IC50 (HCT-116 (colon)): 7.2 ± 0.3 µM
- IC50 (PC3 (prostate) [6]): 3.4 ± 0.3 µM
- Kd (MDM2): 7.94 µM
- IC50 (MDA-MB-231 (breast)): 2.4 ± 0.2 µM

- IC50 (MDA-MB231 (breast)): 7.05 ± 0.204 µM
- IC50 (Caco-2 (colon)): 1050 ± 156 nM
- IC50 (MCF7 (breast) [11]): 10.5 ± 1.6 µM
Compound: O=c1[nH]cc(F)c(=O)[nH]1 [5-fluorouracil]
- IC50 (HepG-2 (liver)): 4.83 ± 0.296 µM
